Eight compounds from ChEMBL document CHEMBL3217650, “Discovery of novel selective Sigma-1 ligands as cognitive enhancers” (Medchemcomm, 2011) can be followed below.

In brackets after ≈: the same amount, converted by molar mass. Activity calls are given as the source filed them. The rule behind the calls is not given here.

Data set [1] is described as follows: Apparent permeability across apical to basolateral side in human Caco2 cells at 20 uM measured up to 3 hrs. In kind it is ADME, cell-based. The settings on record: Caco-2. On the technique in general: Caco-2 monolayers are a common model of the intestinal barrier.
The nature of data set [2]: Ratio of drug level in brain to plasma in C57BL6/J mouse at 1 mg/kg, ip measured at 40 mins. In kind it is ADME, organism-based. Set-up: dose 1 mg/kg, route intraperitoneal. The conditions noted are these: brain and plasma, read-out: BPR.
The target in data set [3] is Sigma non-opioid intracellular receptor 1 (Homo sapiens, UniProt Q99720). The data set is described as follows: Displacement of [3H]-pentazocine from human recombinant sigma-1 receptor expressed in CHO cells after 180 mins by beta counting analysis. Format: cell-based. Background: Loss of bound radioactivity is the signal in a displacement assay; it reports binding, not function.

Data set [4] concerns the target Acetylcholinesterase (Homo sapiens) (UniProt P22303). Briefly: Binding affinity to AChE (unknown origin) at 10 uM by displacement assay relative to control.
The target of data set [5] is Mu-type opioid receptor (Homo sapiens) (UniProt P35372). The data set is described as follows: Binding affinity to mu opioid receptor (unknown origin) at 10 uM by displacement assay relative to control.
The species named for data set [6] is Rattus norvegicus. Briefly: Displacement of [3H]1,3-di-O-tolylguanidine from sigma-2 receptor in rat cerebral cortex at 10 uM relative to control. Format: tissue-based.
Data set [7] in a line: Intrinsic clearance in mouse liver microsomes measured per mg of protein. Format: ADME. The conditions noted are these: read-out: CLH.
The target of data set [8] is Kappa-type opioid receptor (Homo sapiens) (UniProt P41145). The data set is described as follows: Binding affinity to kappa opioid receptor (unknown origin) at 10 uM by displacement assay relative to control.
Data set [9] can be described thus: Intrinsic clearance in rat liver microsomes measured per mg of protein. In kind it is ADME. The settings on record: read-out: CLH. In general terms: Liver microsomes are a subcellular fraction often used to study metabolism.
Data set [10] relates to Mus musculus. The data set is described as follows: Antiamnesic activity in C57BL6/J mouse assessed as reduction of scopolamine-induced memory deficit at 0.03 to 1 mg/kg, ip administered 40 mins prior to acquisition trial by two-trial object recognition test. Format: functional, organism-based.
The target of data set [11] is D(3) dopamine receptor (Homo sapiens) (UniProt P35462). Briefly: Binding affinity to dopamine D3 receptor (unknown origin) at 10 uM by displacement assay relative to control.
In data set [12] the target is T1, Alpha-2C adrenergic receptor (Homo sapiens) (UniProt P18825).
T1 sequence (whole entry): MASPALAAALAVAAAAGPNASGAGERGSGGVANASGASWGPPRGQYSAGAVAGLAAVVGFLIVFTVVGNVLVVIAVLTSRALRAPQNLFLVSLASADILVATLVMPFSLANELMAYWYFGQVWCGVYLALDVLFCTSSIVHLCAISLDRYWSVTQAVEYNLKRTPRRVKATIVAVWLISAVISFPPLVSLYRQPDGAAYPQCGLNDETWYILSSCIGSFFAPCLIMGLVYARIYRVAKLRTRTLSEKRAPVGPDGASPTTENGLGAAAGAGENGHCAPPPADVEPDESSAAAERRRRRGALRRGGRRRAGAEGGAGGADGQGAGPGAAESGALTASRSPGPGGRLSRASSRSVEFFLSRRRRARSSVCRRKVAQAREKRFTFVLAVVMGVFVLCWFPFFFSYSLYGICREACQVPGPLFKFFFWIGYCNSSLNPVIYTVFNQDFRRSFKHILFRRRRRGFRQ
Briefly: Binding affinity to adrenergic alpha-2c receptor (unknown origin) at 10 uM by displacement assay relative to control.

Data set [13] concerns the target D(2) dopamine receptor (Homo sapiens) (UniProt P14416). The data set is described as follows: Binding affinity to dopamine D2 receptor (unknown origin) at 10 uM by displacement assay relative to control.
Data set [14] addresses 5-hydroxytryptamine receptor 2A (Homo sapiens) (UniProt P28223). The data set is described as follows: Binding affinity to 5HT-2a receptor (unknown origin) at 10 uM by displacement assay relative to control.
Data set [15] has as its target Histamine H3 receptor (Homo sapiens) (UniProt Q9Y5N1). The data set is described as follows: Binding affinity to histamine H3 receptor (unknown origin) at 10 uM by displacement assay relative to control.
Data set [16] addresses Sodium-dependent serotonin transporter (Homo sapiens) (UniProt P31645). The data set is described as follows: Binding affinity to 5HT transporter (unknown origin) at 10 uM by displacement assay relative to control.
Data set [17] deals with Sodium-dependent noradrenaline transporter (Homo sapiens) (UniProt P23975). The data set is described as follows: Binding affinity to NE transporter (unknown origin) at 10 uM by displacement assay relative to control.
In data set [18] the target is Sodium-dependent dopamine transporter (Homo sapiens) (UniProt Q01959). The data set is described as follows: Binding affinity to DA transporter (unknown origin) at 10 uM by displacement assay relative to control.
The target in data set [19] is D(4) dopamine receptor (Homo sapiens) (UniProt P21917). The data set is described as follows: Binding affinity to dopamine D4 receptor (unknown origin) at 10 uM by displacement assay relative to control.
For data set [20], the target named is Adrenergic receptor alpha-1 (Homo sapiens) (UniProt P35348+P25100+P35368). Briefly: Binding affinity to adrenergic alpha-1 receptor (unknown origin) at 10 uM by displacement assay relative to control. In kind it is protein assay.
A short description of data set [21]: Octanol-water distribution coefficient, log D of the compound at pH 7.4. Format: physicochemical. The settings on record: read-out: logD.
The target of data set [22] is Opioid receptor (Rattus norvegicus) (UniProt P33533+P34975+P33535). Briefly: Displacement of [3H]-naloxone from opioid receptor in rat cerebral cortex at 10 uM relative to control. In kind it is tissue-based.
A short description of data set [23]: Dissociation constant, pKa of the compound. Format: physicochemical.
The target of data set [24] is 5-hydroxytryptamine receptor 6 (Homo sapiens) (UniProt P50406). Briefly: Binding affinity to 5HT-6 receptor (unknown origin) at 10 uM by displacement assay relative to control.
Data set [25] addresses 5-hydroxytryptamine receptor 7 (Homo sapiens) (UniProt P34969). Briefly: Binding affinity to 5HT-7 receptor (unknown origin) at 10 uM by displacement assay relative to control.
The species entered for data set [26] is Homo sapiens. Briefly: Binding affinity to Ca2+ channel (unknown origin) at 10 uM by displacement assay relative to control.
Data set [27] deals with Histamine H1 receptor (Homo sapiens) (UniProt P35367). The data set is described as follows: Binding affinity to histamine H1 receptor (unknown origin) at 10 uM by displacement assay relative to control.
In data set [28] the test system is Mus musculus. The data set is described as follows: Antiamnesic activity in C57BL6/J mouse assessed as reduction of scopolamine-induced memory deficit at 1 to 23 mg/kg, ip administered 40 mins prior to acquisition trial by two-trial object recognition test. Format: functional, organism-based.
A short description of data set [29]: Intrinsic clearance in human liver microsomes measured per mg of protein. The settings on record: read-out: CLH. Format: ADME.
Data set [30] is described as follows: Solubility of the compound at pH 7.4. The conditions noted are these: buffer. In kind it is physicochemical.
The species entered for data set [31] is Homo sapiens. Briefly: Binding affinity to […] channel (unknown origin) at 10 uM by displacement assay relative to control.
Data set [32] addresses 5-hydroxytryptamine receptor 1A (Homo sapiens) (UniProt P08908). The data set is described as follows: Binding affinity to 5-HT1a receptor (unknown origin) at 10 uM by displacement assay relative to control.
Data set [33] concerns the target Muscarinic acetylcholine receptor (Rattus norvegicus) (UniProt P08482+P08483+P08485+P08911+P10980). The data set is described as follows: Displacement of [3H]-QNB from muscarinic receptor in rat cerebral cortex at 10 uM relative to control. In kind it is tissue-based.
Data set [34] addresses Alpha-2B adrenergic receptor (Homo sapiens) (UniProt P18089). Briefly: Binding affinity to adrenergic alpha-2b receptor (unknown origin) at 10 uM by displacement assay relative to control.
For data set [35], the species on record is Rattus norvegicus. The data set is described as follows: Displacement of [3H]1,3-di-O-tolylguanidine from sigma-2 receptor in rat cerebral cortex. In kind it is tissue-based. The settings on record: concentration not given here.

5-hydroxytryptamine receptor 2A (Homo sapiens), sequence (P28223 whole entry): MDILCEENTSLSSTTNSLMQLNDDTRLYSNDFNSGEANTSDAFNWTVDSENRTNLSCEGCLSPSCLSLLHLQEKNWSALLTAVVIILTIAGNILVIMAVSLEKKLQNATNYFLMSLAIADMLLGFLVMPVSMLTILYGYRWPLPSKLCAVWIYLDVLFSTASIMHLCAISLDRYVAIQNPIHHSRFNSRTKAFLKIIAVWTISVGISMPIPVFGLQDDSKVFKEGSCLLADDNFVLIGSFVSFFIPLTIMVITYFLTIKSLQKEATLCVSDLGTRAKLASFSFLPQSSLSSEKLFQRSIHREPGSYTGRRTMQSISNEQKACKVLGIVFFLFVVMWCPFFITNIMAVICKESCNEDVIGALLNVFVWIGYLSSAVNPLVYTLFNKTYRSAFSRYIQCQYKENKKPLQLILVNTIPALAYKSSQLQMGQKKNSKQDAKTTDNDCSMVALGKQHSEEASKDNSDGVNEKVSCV
Sigma non-opioid intracellular receptor 1, sequence (Q99720 whole entry): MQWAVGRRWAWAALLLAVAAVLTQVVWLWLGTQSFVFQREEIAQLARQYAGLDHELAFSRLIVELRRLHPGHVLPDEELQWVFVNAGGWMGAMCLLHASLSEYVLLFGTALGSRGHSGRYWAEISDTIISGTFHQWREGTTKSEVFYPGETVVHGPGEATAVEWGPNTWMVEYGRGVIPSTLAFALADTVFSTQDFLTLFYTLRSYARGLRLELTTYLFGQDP
D(4) dopamine receptor (Homo sapiens), sequence (P21917 whole entry): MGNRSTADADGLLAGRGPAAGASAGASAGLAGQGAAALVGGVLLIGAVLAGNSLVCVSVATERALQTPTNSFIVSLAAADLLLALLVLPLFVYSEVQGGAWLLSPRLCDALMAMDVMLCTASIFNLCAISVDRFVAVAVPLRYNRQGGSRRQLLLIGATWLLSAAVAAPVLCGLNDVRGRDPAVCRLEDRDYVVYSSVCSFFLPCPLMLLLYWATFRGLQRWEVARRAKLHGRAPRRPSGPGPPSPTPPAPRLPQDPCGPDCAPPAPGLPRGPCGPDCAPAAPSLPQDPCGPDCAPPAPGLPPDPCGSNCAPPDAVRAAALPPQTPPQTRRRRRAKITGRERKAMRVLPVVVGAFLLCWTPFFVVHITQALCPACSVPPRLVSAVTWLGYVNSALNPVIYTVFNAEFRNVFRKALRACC
Histamine H3 receptor (Homo sapiens), sequence (Q9Y5N1 whole entry): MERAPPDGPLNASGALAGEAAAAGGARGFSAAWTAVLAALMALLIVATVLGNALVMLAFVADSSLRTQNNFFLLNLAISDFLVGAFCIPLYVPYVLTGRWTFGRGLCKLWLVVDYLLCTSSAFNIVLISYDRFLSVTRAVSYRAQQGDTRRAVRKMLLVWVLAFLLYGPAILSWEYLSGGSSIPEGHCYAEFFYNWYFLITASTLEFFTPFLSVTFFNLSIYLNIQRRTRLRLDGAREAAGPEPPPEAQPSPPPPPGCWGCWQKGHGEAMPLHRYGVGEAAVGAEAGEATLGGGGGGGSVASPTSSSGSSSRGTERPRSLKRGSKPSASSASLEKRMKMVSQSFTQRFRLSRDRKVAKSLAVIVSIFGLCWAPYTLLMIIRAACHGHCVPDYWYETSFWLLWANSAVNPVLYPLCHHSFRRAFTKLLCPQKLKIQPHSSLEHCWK
Sodium-dependent noradrenaline transporter (Homo sapiens), sequence (P23975 whole entry): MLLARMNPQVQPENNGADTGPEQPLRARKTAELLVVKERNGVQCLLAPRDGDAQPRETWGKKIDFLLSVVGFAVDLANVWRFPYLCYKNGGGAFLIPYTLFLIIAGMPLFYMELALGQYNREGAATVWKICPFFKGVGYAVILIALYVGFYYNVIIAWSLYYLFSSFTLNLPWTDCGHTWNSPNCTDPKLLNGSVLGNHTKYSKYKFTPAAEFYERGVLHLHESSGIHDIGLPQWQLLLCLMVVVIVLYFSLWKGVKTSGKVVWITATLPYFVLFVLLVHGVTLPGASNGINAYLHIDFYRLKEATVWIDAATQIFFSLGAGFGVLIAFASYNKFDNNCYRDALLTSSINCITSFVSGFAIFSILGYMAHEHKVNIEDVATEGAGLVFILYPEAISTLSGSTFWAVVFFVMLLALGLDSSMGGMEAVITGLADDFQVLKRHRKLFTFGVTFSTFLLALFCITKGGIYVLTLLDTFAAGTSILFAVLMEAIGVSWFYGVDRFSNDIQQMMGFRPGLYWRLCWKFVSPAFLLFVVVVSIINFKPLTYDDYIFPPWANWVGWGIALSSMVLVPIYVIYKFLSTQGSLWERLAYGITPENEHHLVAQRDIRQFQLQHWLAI
Mu-type opioid receptor (Homo sapiens), sequence (P35372 whole entry): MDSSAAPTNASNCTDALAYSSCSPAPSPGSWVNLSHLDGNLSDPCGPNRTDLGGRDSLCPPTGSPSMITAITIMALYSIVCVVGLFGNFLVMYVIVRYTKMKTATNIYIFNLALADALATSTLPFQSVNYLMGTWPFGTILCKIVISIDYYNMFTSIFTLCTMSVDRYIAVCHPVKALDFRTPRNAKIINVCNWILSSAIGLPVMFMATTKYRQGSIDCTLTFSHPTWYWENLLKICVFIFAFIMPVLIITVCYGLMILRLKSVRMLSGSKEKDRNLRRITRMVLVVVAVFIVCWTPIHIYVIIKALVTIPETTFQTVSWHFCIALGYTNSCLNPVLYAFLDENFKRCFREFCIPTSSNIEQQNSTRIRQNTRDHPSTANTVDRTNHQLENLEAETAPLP
Kappa-type opioid receptor (Homo sapiens), sequence (P41145 whole entry): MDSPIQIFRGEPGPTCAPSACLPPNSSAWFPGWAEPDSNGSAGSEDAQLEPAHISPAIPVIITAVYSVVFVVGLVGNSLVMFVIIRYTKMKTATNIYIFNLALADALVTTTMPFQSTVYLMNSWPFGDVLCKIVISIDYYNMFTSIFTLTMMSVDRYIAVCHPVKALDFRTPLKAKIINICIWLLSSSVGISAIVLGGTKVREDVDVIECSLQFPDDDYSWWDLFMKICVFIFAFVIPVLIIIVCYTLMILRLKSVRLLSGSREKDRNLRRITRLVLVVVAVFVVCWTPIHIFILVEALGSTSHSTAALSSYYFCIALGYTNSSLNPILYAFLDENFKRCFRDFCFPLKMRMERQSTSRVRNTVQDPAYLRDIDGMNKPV
Sodium-dependent dopamine transporter (Homo sapiens), sequence (Q01959 whole entry): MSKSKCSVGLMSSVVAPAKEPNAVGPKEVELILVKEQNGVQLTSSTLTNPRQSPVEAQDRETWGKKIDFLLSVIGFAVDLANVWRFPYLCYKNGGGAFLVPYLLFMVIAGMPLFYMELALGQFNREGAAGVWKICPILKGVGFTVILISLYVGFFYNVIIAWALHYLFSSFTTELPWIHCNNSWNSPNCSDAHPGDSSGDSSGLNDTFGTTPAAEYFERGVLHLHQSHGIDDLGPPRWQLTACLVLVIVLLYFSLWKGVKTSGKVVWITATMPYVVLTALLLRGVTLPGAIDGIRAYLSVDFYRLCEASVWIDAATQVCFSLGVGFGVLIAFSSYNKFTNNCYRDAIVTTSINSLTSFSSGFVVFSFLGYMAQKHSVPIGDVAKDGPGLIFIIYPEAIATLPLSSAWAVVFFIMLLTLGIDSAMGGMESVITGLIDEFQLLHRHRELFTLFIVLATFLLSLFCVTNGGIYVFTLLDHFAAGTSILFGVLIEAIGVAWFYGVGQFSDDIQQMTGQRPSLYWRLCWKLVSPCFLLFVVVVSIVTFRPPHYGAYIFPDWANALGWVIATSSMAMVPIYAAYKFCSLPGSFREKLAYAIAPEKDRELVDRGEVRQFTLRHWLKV
5-hydroxytryptamine receptor 1A (Homo sapiens), sequence (P08908 whole entry): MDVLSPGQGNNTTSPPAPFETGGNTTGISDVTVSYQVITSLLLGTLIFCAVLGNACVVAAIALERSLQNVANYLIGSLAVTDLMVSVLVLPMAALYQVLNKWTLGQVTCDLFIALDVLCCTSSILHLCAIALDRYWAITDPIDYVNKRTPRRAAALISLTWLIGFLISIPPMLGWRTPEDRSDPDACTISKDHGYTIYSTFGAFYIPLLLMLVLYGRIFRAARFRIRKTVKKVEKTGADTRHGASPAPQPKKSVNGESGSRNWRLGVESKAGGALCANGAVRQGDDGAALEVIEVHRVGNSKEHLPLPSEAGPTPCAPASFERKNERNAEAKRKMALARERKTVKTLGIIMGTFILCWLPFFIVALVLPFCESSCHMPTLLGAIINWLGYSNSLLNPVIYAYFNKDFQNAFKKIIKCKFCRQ
D(3) dopamine receptor (Homo sapiens), sequence (P35462 whole entry): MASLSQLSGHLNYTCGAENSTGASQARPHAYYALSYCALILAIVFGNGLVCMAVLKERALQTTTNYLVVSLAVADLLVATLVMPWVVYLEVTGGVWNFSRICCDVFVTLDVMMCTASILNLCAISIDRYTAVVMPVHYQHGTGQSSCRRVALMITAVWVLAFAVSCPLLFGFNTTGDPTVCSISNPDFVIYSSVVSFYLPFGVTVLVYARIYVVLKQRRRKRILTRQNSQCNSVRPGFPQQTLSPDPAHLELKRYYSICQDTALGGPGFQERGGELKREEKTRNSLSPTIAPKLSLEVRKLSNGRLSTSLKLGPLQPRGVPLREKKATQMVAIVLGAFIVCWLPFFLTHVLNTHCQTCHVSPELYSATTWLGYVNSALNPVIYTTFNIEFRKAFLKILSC
5-hydroxytryptamine receptor 7 (Homo sapiens), sequence (P34969 whole entry): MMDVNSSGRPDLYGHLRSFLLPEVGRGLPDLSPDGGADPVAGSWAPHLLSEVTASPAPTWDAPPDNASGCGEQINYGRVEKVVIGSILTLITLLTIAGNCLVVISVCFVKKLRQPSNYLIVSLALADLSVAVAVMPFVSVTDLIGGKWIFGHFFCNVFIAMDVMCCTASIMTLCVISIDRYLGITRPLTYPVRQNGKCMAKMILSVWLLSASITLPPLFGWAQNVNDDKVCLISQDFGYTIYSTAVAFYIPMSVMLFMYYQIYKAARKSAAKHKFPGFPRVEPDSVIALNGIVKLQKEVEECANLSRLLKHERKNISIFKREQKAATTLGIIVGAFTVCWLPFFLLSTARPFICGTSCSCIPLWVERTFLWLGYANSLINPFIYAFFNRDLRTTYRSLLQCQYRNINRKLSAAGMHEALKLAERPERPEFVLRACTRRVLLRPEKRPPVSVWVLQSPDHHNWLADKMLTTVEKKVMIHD

`C=CCN1CC[C@]2(C)c3cc(O)ccc3C[C@@H]1[C@@H]2C`: the Papp A→B at 3 h, 20 µM in data set [1] turned out to be 20.2 ×10⁻⁶ cm/s. Moreover, the Kp at 40 min in data set [2] was determined as 5.64. Further, the Ki in data set [3] is 158 nM. For the same compound, the inhibition in data set [4] was 50%; in [5], 50%; in the data set listed under Rattus norvegicus [6], 29%; in data set [8] it was above 90%. For the same compound, the microsomal CLint turned out to be 17 µL/min/mg in [7] and 313 µL/min/mg in [9]. Moreover, in the data set with Mus musculus [10], the outcome was Active.

On to `COc1ccc(CCN2CCN(CCCc3ccccc3)CC2)cc1OC`, for which the inhibition in [11] is 50%; in data set [12], 50%; in data set [13], 50%; in the data set listed under Rattus norvegicus [6], 99%; in [14], 50%; in data set [15] it was 50%. Further, the inhibition in data set [16] is 50%; in [17], above 90%; in [18], 50%; in data set [19] it was 50%; in [20], above 90%.

Consider `CCN(CC)CCNC(=O)[C@H]1C[C@@H]1c1ccccc1` (racemic), for which the Ki in [3] is 126 nM. The logD in data set [21] turned out to be 0.6. The inhibition in data set [22] is above 90%; in data set [14] it was 50%. The pKa in [23] is 8.9.

`O=C(NCCN1CCN(Cc2ccccc2)CC1)[C@H]1C[C@@H]1c1ccccc1` (racemic): the inhibition in data set [24], in data set [5], in [25], in data set [8], in data set [14] and in data set [17] was 50% in each case. For the same compound, the inhibition was 50% in [18] and above 90% in data set [19]. Further, the inhibitory constant (Ki) in data set [3] is 15.8 nM. Moreover, in data set [21], the logD stood at 2.8. For the same compound, the microsomal CLint in data set [9] turned out to be 122 µL/min/mg.

Consider `O=C(NCCCN1CCN(Cc2c(F)cccc2Cl)CC1)[C@H]1C[C@@H]1c1ccccc1` (racemic), for which the Ki in data set [3] is 25.1 nM. In addition, the inhibition in data set [12] is 50%; in the data set filed under Homo sapiens [26] it was above 90%; in [14], above 90%; in data set [27], 50%; in data set [20] it was 50%. Besides, the logD in [21] stood at 3.5. In addition, in data set [9], the microsomal CLint came to 305 µL/min/mg.

In the case of `O=C([C@H]1C[C@@H]1c1ccccc1)N1CCC(N2CCCCC2)CC1` (racemic), the outcome with Mus musculus [28] was Active. Besides, the Papp A→B at 3 h, 20 µM in [1] came to 16.6 ×10⁻⁶ cm/s. The Kp at 40 min in [2] amounted to 13.5. Further, the Ki in data set [3] is 79.4 nM. Also, the pH-dependent lipophilicity (logD) in [21] is 1.1. In addition, the inhibition (in the data set listed under Rattus norvegicus [6]; in the data set listed under Homo sapiens [26]; in data set [15]) was 50% each time. Also, the microsomal CLint in [7] was 50 µL/min/mg; in [9] it was 32 µL/min/mg; in data set [29] it was 56 µL/min/mg. In data set [30], this compound showed a solubility of 1100 µg/mL (≈ 3.52 mM). In [23], this compound returned a pKa of 9.3.

For the compound `O=C([C@H]1C[C@@H]1c1ccc(F)cc1)N1CCC(CNCC2CCCCC2)CC1` (racemic), the Ki in data set [3] is 79.4 nM. Further, the inhibition (in the data set listed under Homo sapiens [31]; in data set [32]; in data set [33]) was 50% each time. Besides, the microsomal CLint in data set [9] was determined as 17 µL/min/mg.

Regarding `O=C(NCCCNC1CCCCC1)[C@H]1C[C@@H]1c1ccccc1` (stereo in doubt; (+)-1), the inhibition in the data set filed under Homo sapiens [31] is 50%; in [12], 50%; in [34] it was 50%; in the data set listed under Rattus norvegicus [35], 6.6%; in the data set listed under Homo sapiens [26] it was 50%; in [14] it was above 90%. The compound also returned an inhibition in data set [20] of 50%.

Broadly, the Papp A→B is the apparent permeability from the apical to the basolateral side of a cell layer. As usually defined, the Ki is the equilibrium dissociation constant of an inhibitor or competing ligand from its target. In general, inhibition refers to the relative decrease from the control value, in per cent. Read a low inhibition as a response near the control. As a reminder, the logD is the decadic logarithm of the distribution of all forms, ionised or not, between an organic phase and buffer at a given pH. Usually pKa stands for the pH at which an ionisable group is half protonated. A lower pKa goes with a stronger acid or weaker base. By solubility is commonly meant the concentration that dissolves in the medium under given conditions. A low value points to a poorly soluble substance.
